From patent US12180193B2, “Accelerating fibrosarcoma protein degrading compounds and associated methods of use” (Arvinas Operations, Inc., priority 2020, dated 2024)

Tests used:
BRAF V600E = target: T1, BRAF V600E (Homo sapiens, UniProt P15056, V600E); assay: Cellular assay of target protein degradation, T-Rex 293 cells stably transfected with HA-BRAF_V600E (HA immunofluorescence, high content imaging); type: cell-based; conditions: T-Rex 293 HA-BRAF V600E; for DC50: half maximal degradation, read-out: BRaf V600E DC50; for Dmax: maximum degradation observed
T1 construct: expressed in transfected cells
T1 sequence (P15056 whole entry V600E): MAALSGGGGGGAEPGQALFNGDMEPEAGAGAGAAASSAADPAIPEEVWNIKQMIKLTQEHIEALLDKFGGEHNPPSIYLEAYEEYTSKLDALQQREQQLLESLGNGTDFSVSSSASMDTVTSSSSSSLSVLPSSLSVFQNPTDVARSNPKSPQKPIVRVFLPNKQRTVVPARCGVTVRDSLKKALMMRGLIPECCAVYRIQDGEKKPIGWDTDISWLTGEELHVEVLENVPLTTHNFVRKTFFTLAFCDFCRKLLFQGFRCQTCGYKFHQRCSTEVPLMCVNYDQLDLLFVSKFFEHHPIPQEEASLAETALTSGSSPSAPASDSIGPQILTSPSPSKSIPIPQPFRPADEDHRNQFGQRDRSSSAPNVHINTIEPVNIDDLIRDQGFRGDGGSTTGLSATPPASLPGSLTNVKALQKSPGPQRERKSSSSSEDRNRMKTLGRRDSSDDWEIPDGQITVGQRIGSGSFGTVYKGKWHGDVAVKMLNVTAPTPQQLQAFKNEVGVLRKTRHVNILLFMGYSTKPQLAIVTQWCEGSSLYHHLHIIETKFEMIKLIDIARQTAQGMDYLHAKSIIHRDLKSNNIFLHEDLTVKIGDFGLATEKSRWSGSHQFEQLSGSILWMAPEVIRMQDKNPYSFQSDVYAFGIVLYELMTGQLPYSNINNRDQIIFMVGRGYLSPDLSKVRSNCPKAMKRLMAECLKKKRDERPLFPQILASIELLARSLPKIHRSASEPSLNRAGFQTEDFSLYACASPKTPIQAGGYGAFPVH
In short: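 Cells are plated with 1 ng/mL doxycycline and grown 24 h. Compound is then added (final 1 μM–0.1 nM, 0.1% DMSO) for another 24 h at 37 °C, followed by fixing, HA immunostaining and imaging to obtain DC50 and Dmax.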

BRAF G466V = target: T2, BRAF G466V (Homo sapiens, UniProt P15056, G466V); assay: Cellular assay of target protein degradation, T-Rex 293 cells stably transfected with HA-BRAF G466V (HA immunofluorescence, high content imaging); type: cell-based; conditions: T-Rex 293 HA-BRAF G466V; for DC50: half maximal degradation, read-out: BRaf G466V DC50; for Dmax: maximum degradation observed
T2 construct: expressed in transfected cells
T2 sequence (P15056 whole entry G466V): as the sequence (P15056 whole entry V600E) above, with G466V, E600V counted along it
In short: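 Read-out is HA immunofluorescence by high content imaging, with Hoechst and phalloidin co-staining, giving DC50 and Dmax as a percentage of control. Compound exposure lasts 24 hours at 37° C over 30 nM to 3 pM in 0.1% DMSO, with doxycycline-induced HA-BRAF G466V.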

In the case of `O=C1CC[C@@H](N2Cc3cc(OC[C@H](O)CN4CC5(C4)CN(c4ccc(-c6cnc7[nH]cc(C(=O)c8c(F)ccc(NS(=O)(=O)N9CC[C@@H](F)C9)c8F)c7c6)cc4)C5)ccc3C2=O)C(=O)N1` [Compound 124, (3R)—N-[3-[5-[4-[6-[(2R)-3-[2-[(3R)-2,6-dioxo-3-piperidyl]-1-oxo-isoindolin-5-yl]oxy-2-hydroxy-propyl]-2,6-diazaspiro[3.3]heptan-2-yl]phenyl]-1H-pyrrolo[2,3-b]pyridine-3-carbonyl]-2,4-difluoro-phenyl]-3-fluoro-pyrrolidine-1-sulfonamide], the DC50 (BRAF V600E) was 5 to 50 nM, the Dmax (BRAF V600E) was 35 to 70% and the DC50 (BRAF G466V) was 1 to 10 nM. The Dmax (BRAF G466V) was greater than 70%.

Work on `COc1cc(N2CCN(CC3CCN(c4ccc(-c5cnc6[nH]cc(C(=O)c7c(F)ccc(NS(=O)(=O)N8CC[C@@H](F)C8)c7F)c6c5)cc4)CC3)CC2)ccc1C(=O)N[C@H]1CCC(=O)NC1=O` [Compound 359, 4-(4-{[1-(4-{3-[2,6-difluoro-3-({[(3R)-3-fluoropyrrolidin-1-yl]sulfonyl}amino)benzoyl]-1H-pyrrolo[2,3-b]pyridin-5-yl}phenyl)piperidin-4-yl]methyl}piperazin-1-yl)-N-[(3S)-2,6-dioxopiperidin-3-yl]-2-methoxybenzamide] yielded a DC50 (BRAF V600E) of 5 to 50 nM, a Dmax (BRAF V600E) of 35 to 70% and a DC50 (BRAF G466V) of 1 to 10 nM. The Dmax (BRAF G466V) was greater than 70%.

`O=C1CC[C@@H](N2Cc3cc(CCCCN4CC5(C4)CN(c4ccc(-c6cnc7[nH]cc(C(=O)c8c(F)ccc(NS(=O)(=O)N9CC[C@@H](F)C9)c8F)c7c6)cc4)C5)ccc3C2=O)C(=O)N1` [Compound 63, (3R)-N-[3-(5-{4-[6-(4-{2-[(3R)-2,6-dioxopiperidin-3-yl]-1-oxo-2,3-dihydro-1H-isoindol-5-yl}butyl)-2,6-diazaspiro[3.3]heptan-2-yl]phenyl}-1H-pyrrolo[2,3-b]pyridine-3-carbonyl)-2,4-difluorophenyl]-3-fluoropyrrolidine-1-sulfonamide] gave a DC50 (BRAF V600E) greater than 500 nM, a DC50 (BRAF G466V) of 1 to 10 nM and a Dmax (BRAF G466V) greater than 70%.

In the case of `O=C1CCC(N2Cc3cc(N4CC(C5CN(CC6CCN(c7ccc(-c8cnc9[nH]cc(C(=O)c%10c(F)ccc(NS(=O)(=O)N%11CC[C@@H](F)C%11)c%10F)c9c8)cc7)CC6)C5)C4)ccc3C2=O)C(=O)N1` (stereo partly drawn) [Compound 227, (3R)-N-[3-(5-{4-[4-({1′-[2-(2,6-dioxopiperidin-3-yl)-1-oxo-2,3-dihydro-1H-isoindol-5-yl]-[3,3′-biazetidin]-1-yl}methyl)piperidin-1-yl]phenyl}-1H-pyrrolo[2,3-b]pyridine-3-carbonyl)-2,4-difluorophenyl]-3-fluoropyrrolidine-1-sulfonamide], the DC50 (BRAF V600E) was 5 to 50 nM, the Dmax (BRAF V600E) was less than 35% and the DC50 (BRAF G466V) was 1 to 10 nM. It also gave a Dmax (BRAF G466V) greater than 70%.

Work on `C[C@H]1[C@H](F)CCN1S(=O)(=O)Nc1ccc(F)c(C(=O)c2c[nH]c3ncc(-c4ccc(N5CCC(CN6CCC(c7ccc8c(c7)CN(C7CCC(=O)NC7=O)C8=O)CC6)CC5)cc4)cc23)c1F` (stereo partly drawn) [Compound 271, (2S,3R)-N-[3-(5-{4-[4-({4-[2-(2,6-dioxopiperidin-3-yl)-1-oxo-2,3-dihydro-1H-isoindol-5-yl]piperidin-1-yl}methyl)piperidin-1-yl]phenyl}-1H-pyrrolo[2,3-b]pyridine-3-carbonyl)-2,4-difluorophenyl]-3-fluoro-2-methylpyrrolidine-1-sulfonamide] yielded a DC50 (BRAF V600E) of 5 to 50 nM, a Dmax (BRAF V600E) of 35 to 70% and a DC50 (BRAF G466V) of 1 to 10 nM. For the same compound, the Dmax (BRAF G466V) was greater than 70%.

For `COc1cc(C2CCN(CC3CC4(C3)CN(c3ccc(-c5cnc6[nH]cc(C(=O)c7c(F)ccc(NS(=O)(=O)N8CC[C@@H](F)C8)c7F)c6c5)cc3)C4)CC2)cc2c1C(=O)N(C1CCC(=O)NC1=O)C2` (stereo partly drawn) [Compound 54, (3R)-N-[3-(5-{4-[6-({4-[2-(2,6-dioxopiperidin-3-yl)-7-methoxy-1-oxo-2,3-dihydro-1H-isoindol-5-yl]piperidin-1-yl}methyl)-2-azaspiro[3.3]heptan-2-yl]phenyl}-1H-pyrrolo[2,3-b]pyridine-3-carbonyl)-2,4-difluorophenyl]-3-fluoropyrrolidine-1-sulfonamide], the DC50 (BRAF V600E) was 5 to 50 nM, the Dmax (BRAF V600E) was 35 to 70% and the DC50 (BRAF G466V) was less than 1 nM. The Dmax (BRAF G466V) was 35 to 70%.

With `O=C1CC[C@@H](N2Cc3cc(C4CN(CC5CCN(c6ccc(-c7cnc8[nH]cc(C(=O)c9c(F)ccc(NS(=O)(=O)N%10CC[C@@H](F)C%10)c9F)c8c7)cc6)CC5)C4)ccc3C2=O)C(=O)N1` [Compound 84, (3R)-N-{3-[5-(4-{4-[(3-{2-[(3R)-2,6-dioxopiperidin-3-yl]-1-oxo-2,3-dihydro-1H-isoindol-5-yl}azetidin-1-yl)methyl]piperidin-1-yl}phenyl)-1H-pyrrolo[2,3-b]pyridine-3-carbonyl]-2,4-difluorophenyl}-3-fluoropyrrolidine-1-sulfonamide] the DC50 (BRAF V600E) was 5 to 50 nM, the Dmax (BRAF V600E) was 35 to 70% and the DC50 (BRAF G466V) was less than 1 nM. It also gave a Dmax (BRAF G466V) greater than 70%.

Compound `O=C1CC[C@@H](NC(=O)c2ccc(N3CCC(CN4CC5(C4)CN(c4ccc(-c6cnc7[nH]cc(C(=O)c8c(F)ccc(NS(=O)(=O)N9CC[C@@H](F)C9)c8F)c7c6)cc4)C5)CC3)cc2F)C(=O)N1` [Compound 30, 4-(4-{[6-(4-{3-[2,6-difluoro-3-({[(3R)-3-fluoropyrrolidin-1-yl]sulfonyl}amino)benzoyl]-1H-pyrrolo[2,3-b]pyridin-5-yl}phenyl)-2,6-diazaspiro[3.3]heptan-2-yl]methyl}piperidin-1-yl)-N-[(3R)-2,6-dioxopiperidin-3-yl]-2-fluorobenzamide] has a DC50 (BRAF V600E) greater than 500 nM, a DC50 (BRAF G466V) of 10 to 30 nM and a Dmax (BRAF G466V) of less than 35%.

Compound `N#Cc1cc(-c2cnc3[nH]cc(C(=O)c4c(F)ccc(NS(=O)(=O)N5CC[C@@H](F)C5)c4F)c3c2)cc(C#N)c1N1CCC(CN2CCC(c3ccc4c(c3)CN([C@H]3CCC(=O)NC3=O)C4=O)CC2)CC1` [Compound 260, (3R)-N-{3-[5-(3,5-dicyano-4-{4-[(4-{2-[(3S)-2,6-dioxopiperidin-3-yl]-1-oxo-2,3-dihydro-1H-isoindol-5-yl}piperidin-1-yl)methyl]piperidin-1-yl}phenyl)-1H-pyrrolo [2,3-b]pyridine-3-carbonyl]-2,4-difluorophenyl}-3-fluoropyrrolidine-1-sulfonamide] has a DC50 (BRAF V600E) of 5 to 50 nM, a Dmax (BRAF V600E) of 35 to 70% and a DC50 (BRAF G466V) of 1 to 10 nM. It also gave a Dmax (BRAF G466V) of 35 to 70%.

`O=C1CCC(N2Cc3cc(OCCN4CC5(C4)CN(c4ccc(-c6cnc7[nH]cc(C(=O)c8c(F)ccc(NS(=O)(=O)N9CC[C@@H](F)C9)c8F)c7c6)cc4)C5)ccc3C2=O)C(=O)N1` (stereo partly drawn) [Compound 89, (3R)-N-[3-(5-{4-[6-(2-{[2-(2,6-dioxopiperidin-3-yl)-1-oxo-2,3-dihydro-1H-isoindol-5-yl]oxy}ethyl)-2,6-diazaspiro[3.3]heptan-2-yl]phenyl}-1H-pyrrolo[2,3-b]pyridine-3-carbonyl)-2,4-difluorophenyl]-3-fluoropyrrolidine-1-sulfonamide] was tested, and the DC50 (BRAF V600E) was less than 5 nM, the Dmax (BRAF V600E) was 35 to 70% and the DC50 (BRAF G466V) was less than 1 nM. It also gave a Dmax (BRAF G466V) of 35 to 70%.

With `O=C1CC[C@H](N2Cc3cc(C[C@H](O)CN4CCN(c5ccc(-c6cnc7[nH]cc(C(=O)c8c(F)ccc(NS(=O)(=O)N9CC[C@@H](F)C9)c8F)c7c6)cc5)CC4)ccc3C2=O)C(=O)N1` [Compound 74] the DC50 (BRAF V600E) was 5 to 50 nM, the Dmax (BRAF V600E) was 35 to 70% and the DC50 (BRAF G466V) was 1 to 10 nM. It also gave a Dmax (BRAF G466V) greater than 70%.

In the case of `O=C1CCC(N2Cc3cc(N4CCC(CN5CCN(C6(c7ccc(-c8cnc9[nH]cc(C(=O)c%10c(F)ccc(NS(=O)(=O)N%11CC[C@@H](F)C%11)c%10F)c9c8)cc7)CC6)CC5)CC4)ccc3C2=O)C(=O)N1` (stereo partly drawn) [Compound 162, (3R)-N-{3-[5-(4-{1-[4-({1-[2-(2,6-dioxopiperidin-3-yl)-1-oxo-2,3-dihydro-1H-isoindol-5-yl]piperidin-4-yl}methyl)piperazin-1-yl]cyclopropyl}phenyl)-1H-pyrrolo[2,3-b]pyridine-3-carbonyl]-2,4-difluorophenyl}-3-fluoropyrrolidine-1-sulfonamide], the DC50 (BRAF V600E) was 50 to 500 nM, the Dmax (BRAF V600E) was less than 35% and the DC50 (BRAF G466V) was 1 to 10 nM. For the same compound, the Dmax (BRAF G466V) was 35 to 70%.

`N#Cc1cc(-c2cnc3[nH]cc(C(=O)c4c(F)ccc(NS(=O)(=O)N5CC[C@@H](F)C5)c4F)c3c2)cc(C#N)c1N1CCC(CN2CCC(c3ccc4c(c3)CN(C3CCC(=O)NC3=O)C4=O)CC2)CC1` (stereo partly drawn) [Compound 261, (3R)-N-[3-(5-{3,5-dicyano-4-[4-({4-[2-(2,6-dioxopiperidin-3-yl)-1-oxo-2,3-dihydro-1H-isoindol-5-yl]piperidin-1-yl}methyl)piperidin-1-yl]phenyl}-1H-pyrrolo [2,3-b]pyridine-3-carbonyl)-2,4-difluorophenyl]-3-fluoropyrrolidine-1-sulfonamide] was tested, and the DC50 (BRAF V600E) was 5 to 50 nM, the Dmax (BRAF V600E) was 35 to 70% and the DC50 (BRAF G466V) was 1 to 10 nM. The Dmax (BRAF G466V) was greater than 70%.

For `O=C1CC[C@H](NC(=O)N2CCCc3c(N4CC5(CN(CCc6ccc(-c7cnc8[nH]cc(C(=O)c9c(F)ccc(NS(=O)(=O)N%10CC[C@@H](F)C%10)c9F)c8c7)cc6)C5)C4)ccnc32)C(=O)N1` [Compound 379, 5-{6-[2-(4-{3-[2,6-difluoro-3-({[(3R)-3-fluoropyrrolidin-1-yl]sulfonyl}amino)benzoyl]-1H-pyrrolo[2,3-b]pyridin-5-yl}phenyl)ethyl]-2,6-diazaspiro[3.3]heptan-2-yl}-N-[(3S)-2,6-dioxopiperidin-3-yl]-1,2,3,4-tetrahydro-1,8-naphthyridine-1-carboxamide], the DC50 (BRAF V600E) was 50 to 500 nM, the Dmax (BRAF V600E) was 35 to 70% and the DC50 (BRAF G466V) was 1 to 10 nM. For the same compound, the Dmax (BRAF G466V) was 35 to 70%.
